Read-outs that look alike come from different tables or passages of the source.
Legend:
[1] = tested on: IDH1/R132H in U87MG glioma cells; assay: U87MG/IDH1R132H cell assay (intracellular 2HG); type: cell-based; conditions: Homo sapiens, U-87 MG, 1 hour + 18 hours incubation, read-out: U87MG (IDH1/R132H 2-hydroxyglutarate IC50)
Method: To test the cellular inhibition of IDH1 mutant R132C, the fibrosarcoma cell line HT1080 (purchased from ATCC) is used. For testing cell-based inhibition of the R132H mutation, the U87MG glioma cell line (ATCC) was stably transfected with a DNA construct expressing the R132H mutant enzyme.
Cells are plated in poly-D-lys coated 96 well plates (12,000 cells/well) 18-24 hours previous to treatment with compounds. Four hours prior to compound treatment, cells are glutamine-starved by removing normal media and replacing with glutamine-free media. Following starvation, cells are then treated with different concentrations of test compounds (20 μM to 1 nM) dissolved in glutamine free media containing DMSO at a final concentration of 0.2%. The initial compound incubation is for 1 hour at 37° C./5% CO2. After 1 hour, glutamine is added to a final 2 mM concentration and the treated cells are then incubated for a further 18 hours at 37° C./5% CO2. Intracellular 2HG is analyzed in cell lysates obtained after media removal and treatment with lysis buffer (25 mM Tris-HCl pH 7.5, 150 mM NaCl, 1 mM EDTA, 1 mM EGTA/1% Triton-X 100). Cell lysates are conserved at −80° C. until processing. For analyte extraction, an aliquot of thawed lysate is transferred to a deep 96-well plate and treated with cold MeOH containing d5-3HG as an internal standard followed by chloroform and H2O (1:4:3:2). The upper phase is collected after separation and injected in HPLC to separate 2HG (and internal standard) using hydrophilic interaction (HILIC) chromatography coupled to MS/MS detection in a 6460 triple quadrupole mass spectrometer. Percent inhibition for each individual sample is obtained after normalizing calculated 2HG concentration to maximum and minimum references obtained in the presence and in the absence of glutamine during cell treatment with compounds. IC50 values are obtained from individual % inhibition using a sigmoidal dose-response 4-parameter equation. These calculations are carried out automatically using Activity Base (IDBS) or Screener (Genedata) data analysis programs.

IDH1/R132H = molecular target: T1, IDH1/R132H (Homo sapiens, UniProt O75874, R132H); assay: Biochemical assay for IDH1 R132H mutant enzyme (2HG by RapidFire MS); conditions: mean ± standard deviation of the mean; 90 minutes reaction
T1 construct: His-tag (N); made in house; host or cells: E. coli
Method: (§1) IDH1-R132H, IDH1-R132C, IDH2-R172K and IDH2-R140Q mutant enzymes catalyze the conversion of αKG to 2HG. 2HG is analyzed using in-line solid phase extraction and mass spectrometry. This analysis is carried out in a RapidFire® instrument coupled to a 6460 triple quadrupole mass spectrometer (G6460A Agilent).
(§2) IDH1 mutant (R132H and R132C) and IDH2 mutant (R140Q and R172K) proteins containing N-terminal His-tag are expressed in E. coli and purified using nickel affinity chromatography. The enzyme assays are carried out in V-bottom 96 well polypropylene plates containing 100 mM Tris-HCl buffer, 1 mM DTT, 0.005% TRITON™ X-100, 120 mM NaCl. For IDH1 R132H, α-ketoglutarate, NADPH and MnCl2 are included at final concentrations of 300 μM, 2.5 μM and 300 μM respectively. For IDH1 R132C, α-ketoglutarate, NADPH and MnCl2 are included at final concentrations of 100 μM, 10 μM and 100 μM respectively. For IDH2 R172K, α-ketoglutarate, NADPH and MnCl2 are included at final concentrations of 150 μM, 10 μM and 150 μM respectively. For IDH2 R140Q, α-ketoglutarate, NADPH and MnCl2 are included at final concentrations of 3000 μM, 10 μM and 100 μM respectively. Final pH=7.0. Test compound dissolved in DMSO stock is diluted in the reaction mix at a final DMSO concentration of 4%. Compounds are tested in dose-response format. The assay is started by addition of enzyme. Enzymes are used at the following final concentrations: IDH1 R132H, 2 nM; IDH1 R132C, 0.5 nM; IDH2 R172K, 1.2 nM; IDH2 R140Q, 1.2 nM. After 90 minutes the reaction is quenched by adding ACN (50:50) containing 3-hydroxy-1,5-pentanedioic-2,2,3,4,4-d5 acid (5d5-3HG) as an internal standard for mass spectrometry analysis and quantitation of reaction product. 2-Hydroxyglutarate (2HG) in quenched samples is separated using strong anionic exchange column chromatography (Phenomenex Strata-X-A SecurityGuard) and analyzed by mass spectrometry in a 6460 triple quadrupole mass spectrometer (G6460A Agilent). The 2HG signal detected is transformed into an analyte concentration using a calibration curve generated using known 2HG concentrations. […] IC50 values are obtained from the individual % inhibition values at different compound concentrations using a 4-parameter equation. These calculations are carried out using Activity Base (IDBS) or Screener (Genedata) data analysis programs.

IDH1/R132C = molecular target: T2, IDH1/R132C (Homo sapiens, UniProt O75874, R132C); assay: Biochemical assay for IDH1 R132C mutant enzyme (2HG by RapidFire MS); conditions: mean ± standard deviation of the mean; 90 minutes reaction
T2 construct: His-tag (N); made in house; host or cells: E. coli
Method: as §1, §2

IDH2/R172K = molecular target: T3, IDH2/R172K (Homo sapiens, UniProt P48735, R172K); assay: Biochemical assay for IDH2 R172K mutant enzyme (2HG by RapidFire MS); conditions: mean ± standard deviation of the mean; 90 minutes reaction
T3 construct: His-tag (N); made in house; host or cells: E. coli
T3 sequence (P48735 40-452 R172K): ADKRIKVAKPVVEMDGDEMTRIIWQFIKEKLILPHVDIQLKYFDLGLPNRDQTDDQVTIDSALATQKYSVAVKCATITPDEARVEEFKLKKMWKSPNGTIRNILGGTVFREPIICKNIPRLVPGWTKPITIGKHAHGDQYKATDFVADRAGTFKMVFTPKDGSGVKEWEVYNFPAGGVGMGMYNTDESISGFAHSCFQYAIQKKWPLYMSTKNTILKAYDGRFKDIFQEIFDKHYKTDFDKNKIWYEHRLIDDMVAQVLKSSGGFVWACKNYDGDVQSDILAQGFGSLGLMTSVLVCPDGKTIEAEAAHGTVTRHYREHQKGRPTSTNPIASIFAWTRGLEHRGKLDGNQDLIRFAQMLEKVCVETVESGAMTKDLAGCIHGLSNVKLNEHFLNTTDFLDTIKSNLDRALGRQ
Method: as §1, §2

T2 sequence (O75874 whole entry R132C): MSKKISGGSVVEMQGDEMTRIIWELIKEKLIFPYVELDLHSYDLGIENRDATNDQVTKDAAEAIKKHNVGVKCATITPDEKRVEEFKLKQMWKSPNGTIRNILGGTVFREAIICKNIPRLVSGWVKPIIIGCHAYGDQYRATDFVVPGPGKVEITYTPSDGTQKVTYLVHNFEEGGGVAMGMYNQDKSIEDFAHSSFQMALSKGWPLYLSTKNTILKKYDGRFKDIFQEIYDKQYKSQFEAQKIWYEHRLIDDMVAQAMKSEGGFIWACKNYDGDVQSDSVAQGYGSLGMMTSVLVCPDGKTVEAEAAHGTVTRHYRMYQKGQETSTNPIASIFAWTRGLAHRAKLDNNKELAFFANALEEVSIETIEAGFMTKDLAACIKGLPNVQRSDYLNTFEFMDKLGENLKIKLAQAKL
T1 sequence (O75874 whole entry R132H): as the sequence (O75874 whole entry R132C) above, with C132H counted along it

IC50 ([1]; 19 h) | IC50 (IDH1/R132H) | IC50 (IDH1/R132C) | IC50 (IDH2/R172K) | IC50 [1] | SMILES
9.75 ± 2.41 nM | 81.9 ± 54.1 nM | 82.5 ± 58.3 nM | 13000 nM | – | C=CC(=O)N1CC2(CN(Cc3ccc([C@H](C)Nc4ncc5c(n4)N(CC)C(=O)OC5)cc3)C2)C1 [Example 14, 1-Ethyl-7-[[(1S)-1-[4-[(2-prop-2-enoyl-2,6-diazaspiro[3.3]heptan-6-yl)methyl]phenyl]ethyl]amino]-4H-pyrimido[4,5-d][1,3]oxazin-2-one]
3.9 nM | 128 ± 9 nM | 109 ± 54 nM | 10400 nM | – | C=CC(=O)N1CC2(CN(Cc3ccc([C@H](C)Nc4ncc5c(n4)N(C(C)C)C(=O)OC5)cc3)C2)C1 [Example 15, 1-Isopropyl-7-[[(1S)-1-[4-[(2-prop-2-enoyl-2,6-diazaspiro[3.3]heptan-6-yl)methyl]phenyl]ethyl]amino]-4H-pyrimido[4,5-d][1,3]oxazin-2-one]
5.79 ± 0.57 nM | 116 ± 15 nM | 137 ± 44 nM | 4100 nM | – | C=CC(=O)N1CCN(Cc2ccc([C@H](C)Nc3ncc4c(n3)N(CC)C(=O)OC4)cc2F)CC1 [Example 16, 1-Ethyl-7-[[(1S)-1-[3-fluoro-4-[(4-prop-2-enoylpiperazin-1-yl)methyl]phenyl]ethyl]amino]-4H-pyrimido[4,5-d][1,3]oxazin-2-one]
6.75 ± 1.13 nM | 114 ± 38 nM | 215 ± 86 nM | 1740 nM | – | C=CC(=O)N1CC(COc2ccc([C@H](C)Nc3ncc4c(n3)N(CC)C(=O)OC4)cc2)C1 [Example 17, 1-Ethyl-7-[[(1S)-1-[4-[(1-prop-2-enoylazetidin-3-yl)methoxy]phenyl]ethyl]amino]-4H-pyrimido[4,5-d][1,3]oxazin-2-one]
– | 776 ± 210 nM | 1580 ± 340 nM | 23000 ± 12400 nM | 44.9 ± 22.4 nM | C=CC(=O)N1CCN(Cc2ccc([C@H](C)Nc3ncc4c(n3)N(C)C(=O)OC4)cc2)CC1 [Example 19, 1-Methyl-7-[[(1S)-1-[4-[(4-prop-2-enoylpiperazin-1-yl)methyl]phenyl]ethyl]amino]-4H-pyrimido[4,5-d][1,3]oxazin-2-one]
31.9 ± 11.7 nM | 180 ± 33 nM | 189 ± 33 nM | 6780 ± 2400 nM | – | C=CC(=O)N1CCN(Cc2ccc([C@H](C)Nc3ncc4c(n3)N(CC(F)F)C(=O)OC4)cc2)CC1 [Example 20, 1-(2,2-difluoroethyl)-7-[[(1S)-1-[4-[(4-prop-2-enoylpiperazin-1-yl)methyl]phenyl]ethyl]amino]-4H-pyrimido[4,5-d][1,3]oxazin-2-one]
24.6 ± 15.9 nM | 323 ± 76 nM | 485 ± 17 nM | 10400 ± 7000 nM | – | C=CC(=O)N1CCN(Cc2ccc([C@H](C)Nc3ncc4c(n3)N(CCF)C(=O)OC4)cc2)CC1 [Example 21, 1-(2-fluoroethyl)-7-[[(1S)-1-[4-[(4-prop-2-enoylpiperazin-1-yl)methyl]phenyl]ethyl]amino]-4H-pyrimido[4,5-d][1,3]oxazin-2-one]
